What was measured:
rat liver microsomes = experiment: Incubation of F18 with rat liver microsomes, metabolite profiling; assay type: in vitro ADME; parameters: key: +: Metabolite detected; −: metabolite not detected; conditions: F18 50 μM, 1 h
Procedure: (§1) A stock solution of F18 (5 mM) was prepared in methanol. F18 (50 μM) was incubated with RLMs/DLMs/MLMs/HLMs and HLcy (0.5 mg protein/mL) in 50 mM Tris-HCl buffer containing 5 mM MgCl2 (pH 7.4) in a final volume of 200 μL. The final concentration of methanol in the incubation system was 1% (v/v). After 3 min of preincubation at 37°C, the reactions were initiated by the addition of NADPH-regenerating system (10-mM β-NADP, 100-mM 6-G-P and 10-U/mL 6-G-P-DH) or NADH. After incubation for 1 h, the reactions were terminated by the addition of two volumes of ice-cold acetonitrile. Samples without NADPH or NADH were included as controls. The incubation mixture was vortexed and centrifuged at 13,300 × g for 5 min. A 10 μL aliquot of the supernatant was injected into an LC-tandem mass spectrometer (LC-MS/MS) for analysis.
(§2) Metabolic profiling studies were performed with a Finnigan TSQ Quantum MS instrument with an electrospray ionization probe and a Finnigan SURVEYOR HPLC system (Thermo Finnigan, San Jose, CA, USA). HPLC was performed with a Zorbax SB-C18 column (2.1 × 100 mm, 3.5 μm, Agilent Corporation, CA, USA) with a column temperature of 35°C and a flow rate of 200 μL/min. F18 and its metabolites were eluted using a linear gradient method with a mobile phase consisting of solvent A (water with 0.1% formic acid) and solvent B (acetonitrile with 0.1% formic acid). […] The samples were analyzed in the positive-ionization mode, and the TSQ capillary temperature was set to 350°C. Nitrogen was used as both the sheath gas and the auxiliary gas and was delivered at 30 psi and 15 psi, respectively. The spray voltage and tube lens were set to 3,800 V and 123 V, respectively. The full-width half maximum (FWHM) was set to 0.7. MS data were acquired in the selective ion-recording mode or by collecting full scans from 200 to 600 m/z at 1 scan/s. The mass spectrometer and HPLC system were operated using Xcalibur 2.0.7 software.

dog liver microsomes = experiment: Incubation of F18 with dog liver microsomes, metabolite profiling; assay type: in vitro ADME, beagle dog; parameters: key: +: Metabolite detected; −: metabolite not detected; conditions: F18 50 μM, 1 h
Procedure: as §1, §2

[1] = Pharmacokinetics in rats after oral administration of F18; assay type: in vivo, Sprague-Dawley rats; conditions: oral F18 50 mg/kg; for Cmax / Tmax / half-life / MRT last / MRT inf: Sprague-Dawley; for Cmax / Tmax / half-life / MRT last / MRT inf / AUC0−∞ / Systemic exposure relative to that of the parent drug: rat blood; for Cmax / Tmax / half-life / MRT last / MRT inf / AUC0−∞: mean ± SD, n = 5; for MRT last: read-out: MRT0−t; for MRT inf: read-out: MRT0−∞; for Systemic exposure relative to that of the parent drug: from AUC0−∞
Procedure: To investigate the pharmacokinetic characteristics of F18 and its major metabolites, five rats were intragastrically administered F18 at a dose of 50 mg/kg. Blood samples were collected in heparinized ice-bath tubes from the suborbital veniplex at 0, 0.25, 0.5, 1, 2, 4, 6, 8, 12, 16, and 24 h postdose. The blood concentrations of F18 and its major metabolites were determined by LC-MS/MS and their pharmacokinetic parameters were calculated through non-compartmental analysis using WinNonlin Version 6.1 (Pharsight, Mountain View, CA, USA).
For the blood samples, F18, M1, M3-1, and M3-2 were simultaneously quantified using the following elution gradient: Solvent B was maintained at 15% for 2 min, increased to 85% in 1 min, maintained at 85% for 5 min, decreased to 15% in 0.5 min and maintained at 15% for 4.5 min. Detection was also performed using a Finnigan TSQ Quantum MS instrument with an electrospray ionization probe operated in the positive mode.
Calibration curves for F18 and its metabolites were fitted via linearly weighted (1/x^2) least-squares regression. The correlation coefficient values of F18 and its metabolites in the incubations were >0.99 for the range 10–5,000 nM; the LOQ was 10 nM with a signal-to-noise ratio >10:1; the accuracies were 90–113% and the precisions (RSD) were <10.5%. In the blood samples, the correlation coefficient values for F18, M1, M3-1, and M3-2 were >0.99 for the range 5–2,000 nM; the LOQ was 5 nM with the signal-to-noise ratio >10:1; the accuracies were 91–112% and the precisions (RSD) were <9.6%. In addition, no interference was found in the retention time of each analyte in both the incubated samples and the blood samples.

recombinant FMO5 = target: T1, recombinant FMO5 (Homo sapiens, UniProt P49326); experiment: Metabolism of F18 by cDNA-expressed FMO5; assay type: in vitro ADME; conditions: F18 10 μM, 50 pmol/mL enzyme, 1 h
T1 construct: purchased BD Gentest (Woburn, MA, USA)
T1 sequence (P49326 1-533): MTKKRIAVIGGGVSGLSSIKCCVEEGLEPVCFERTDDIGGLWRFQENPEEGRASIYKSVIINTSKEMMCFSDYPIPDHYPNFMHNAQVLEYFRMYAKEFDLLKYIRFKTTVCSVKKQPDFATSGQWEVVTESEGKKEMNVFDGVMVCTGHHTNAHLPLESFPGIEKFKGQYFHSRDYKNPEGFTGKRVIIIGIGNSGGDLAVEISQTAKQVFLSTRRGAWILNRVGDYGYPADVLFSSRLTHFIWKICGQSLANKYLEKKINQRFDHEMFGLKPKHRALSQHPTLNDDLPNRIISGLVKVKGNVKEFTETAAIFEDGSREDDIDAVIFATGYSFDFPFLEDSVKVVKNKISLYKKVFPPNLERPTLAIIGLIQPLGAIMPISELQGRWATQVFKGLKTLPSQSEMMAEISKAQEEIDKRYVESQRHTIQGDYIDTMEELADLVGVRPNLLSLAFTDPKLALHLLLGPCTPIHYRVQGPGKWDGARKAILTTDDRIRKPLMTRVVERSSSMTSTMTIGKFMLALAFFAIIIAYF
Procedure: To further verify the roles of CYPs and FMOs in the metabolism of F18 in humans, F18 (10 μM) was incubated individually with 14 cDNA-expressed human CYP isozymes (50-pmol/mL CYP1A1, CYP1A2, CYP2A6, CYP2B6, CYP2C8, CYP2C9, CYP2C19, CYP2D6, CYP2E1, CYP2J2, CYP3A4, CYP4F2, CYP4F3, and CYP4A11) and three cDNA-expressed FMO enzymes (50-pmol/mL FMO1, FMO3, and FMO5). The incubation conditions were similar to those used for HLMs (described above), with the exception of the incubating time […]. Samples incubated without NADPH were used as the negative control.

Structure (SMILES) | F18 metabolite detected in RLM (rat liver microsomes) | F18 metabolite detected in DLM (dog liver microsomes) | Cmax [1] [nM] | Tmax [1] [h] | half-life [1] [h] | MRT last [1] [h] | MRT inf [1] [h] | Concentration in rat blood (in words) [1] | AUC0−∞ [1] | Systemic exposure relative to that of the parent drug [1] [%] | Metabolite detected in incubation with recombinant FMO5 (recombinant FMO5)
CCCc1cc(=O)oc2c3c(c4c(c12)OC(C)(C)C=C4)O[C@H](CCl)C[C@H]3O (relative stereo) [Metabolite M3-1, trans-12-hydroxy F18] | + | + | 165 ± 50.9 | 4 ± 2.3 | 3.4 ± 0.64 | 8.6 ± 0.6 | 8.9 ± 0.7 | detected in high concentrations | 1,965 h^*nM | ~38 | detected
CCCc1cc(=O)oc2c3c(c4c(c12)OC(C)(C)C=C4)O[C@H](CCl)C[C@@H]3O (relative stereo) [Metabolite M3-2, cis-12-hydroxy F18] | + | + | 219 ± 51.2 | 4 ± 2.3 | 3 ± 0.4 | 8.8 ± 1.2 | 13.2 ± 7.2 | detected in high concentrations | 3,353 h^*nM | ~65 | detected
CCCc1cc(=O)oc2c3c(c4c(c12)OC(C)(C)C=C4)OC(CO)CC3=O (centres unmarked) [Metabolite M1] | + | + | 274 ± 111 | 4 ± 1.6 | 4.8 ± 2.1 | 8.4 ± 0.5 | 9.4 ± 1.5 | detected in high concentrations | 3,290 h^*nM |  | not detected

From PMC5515859, “Metabolism of F18, a Derivative of Calanolide A, in Human Liver Microsomes and Cytosol” (Frontiers in Pharmacology, 2017)
